Here are results for 37 compounds from patent publication US8242118B2, “Arylsulfonamide derivatives for use as CCR3 antagonists in the treatment of inflammatory and immunological disorders” (Axikin Pharmaceuticals Inc., priority 2001, dated 2012).

Structures can show the parent of a compound that is named as a salt. Where only a bound is given, the exact number is not on record here.

For the experiment, the target named is T1, Human CCR3 (Homo sapiens, UniProt P51677).
T1 construct: The cloned CCR3 cDNA was constructed with pcDNA3 vector and transfected into a IC562 cell line; expressed in transfected cells
T1 sequence (P51677 1-355): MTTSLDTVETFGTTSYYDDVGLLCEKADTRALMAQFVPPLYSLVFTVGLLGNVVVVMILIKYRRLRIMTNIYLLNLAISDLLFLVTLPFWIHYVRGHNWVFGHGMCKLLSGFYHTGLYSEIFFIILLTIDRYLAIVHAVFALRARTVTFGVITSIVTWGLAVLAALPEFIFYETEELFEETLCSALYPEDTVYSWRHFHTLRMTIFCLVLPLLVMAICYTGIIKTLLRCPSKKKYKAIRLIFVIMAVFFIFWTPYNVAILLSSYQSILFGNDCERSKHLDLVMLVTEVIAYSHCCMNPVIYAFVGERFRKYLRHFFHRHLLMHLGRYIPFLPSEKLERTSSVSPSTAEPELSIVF
Kind of experiment: Receptor binding assay (RBA), [125I]-eotaxin. As to conditions: human CCR3-transformed K562 cells, 0.1 nM [125I]-eotaxin; compounds of about 40 to 90% purity; read-out: Activity grade RBA (IC50 class). On the procedure:
[Determination of IC50 Values of Compounds in Receptor Binding Assay]
• Human CCR3-transformed K562 cells were used. The cloned CCR3 cDNA was constructed with pcDNA3 vector and transfected into a IC562 cell line. The human CCR3-transformed K562 cells were maintained in RPMI-1640 (Cat.#22400-089, Life Technologies) supplemented with 10% FCS (Cat.#A-1115-L, Hyclone), 55 μM 2-mercaptoethanol (Cat.#21985-023, Life Technologies), 1 mM sodium pyruvate (Cat.#11360-070, Life Technologies), 100 units/ml of penicillin G and 100 μg/ml of streptomycin (Cat.#15140-122, Life Technologies), and 0.4 mg/ml of Geneticin (Cat.#10131-035, Life Technologies)(hereinafter called “culture medium”). Before the receptor binding assay, cells were pretreated with 5 mM sodium butyrate (Cat.#193-01522, Wako)-containing the culture medium (2×10^5 cells/ml) for 20-24 hours to increase the expression of CCR3. (2) Receptor Binding Assay (RBA) • Butyrate-pretreated cells, suspended in binding buffer (25 mM HEPES pH 7.6, 1 mM CaCl2, 5 mM MgCl2, 0.5% BSA, 0.1% NaN3) at a cell density of 2×10^6 cells/ml, were added into 60 μl/well in the 96-well round bottom polypropylene plate (Cat.#3365, Costar). Compounds, diluted with the binding buffer (4-times higher concentration of the final concentration), were added into 30 μl/well in the polypropylene plate. [^125I]-labeled human eotaxin (Cat.#IM290, Amersham Pharmacia Biotech), diluted with the binding buffer at the concentration of 0.4 nM (final concentration; 0.1 nM), was added into 30 μl/well in the polypropylene plate. Total 120 μl/well of binding reaction mixture (60 μl/well of cell suspension, 30 μl/well of compound solution, and 30 μl/well of [^125I]-labeled eotaxin) were incubated in the polypropylene plate for 1 hour at room temperature after the incubation, 100 μl/well of the reaction mixture was transferred to a filtration plate (Cat.#MAFB-N0B, Millipore), and washed with the washing buffer (25 mM HEPES pH 7.6, 1 mM CaCl2, 5 mM MgCl2, 0.5% BSA, 0.1% NaN3, 0.5 M NaCl) twice. The 96-well filtration plate was pretreated with 100 μl/well of 0.5% polyethylenimine (Cat.#P-3143, Sigma) for 2-4 hours at room temperature and washed with the washing buffer twice before use. The non-specific binding was determined by parallel incubation in the presence of 500 nM of non-labeled eotaxin (Cat.#23209, Genzyme Techne). The radioactivities remained on the filter were measured by liquid scintillation counter (TopCount™, Packard) after an addition of 45 μl/well of scintillant (Microscint20, Cat.#6013621, Packard). The inhibition percent at each concentration of compound was calculated, and IC50 values were determined from the inhibition curve. [Determination of IC50 Values of Compounds in Calcium Mobilization Assay] (IC50 Ca2+) (1) Cell • Human CCR3-transformed K562 cells were used. The human CCR3-transformed K562 cells were maintained in RPMI-1640 supplemented with 10% FCS, 55 μM 2-mercaptoethanol (Cat.#21985-023, Life Technologies), 1 mM sodium pyruvate, 100 units/ml of penicillin G and 100 μg/ml of streptomycin and 0.4 mg/ml of Geneticin. Before the calcium mobilization assay, cells were pretreated with 5 mM sodium butyrate-containing the culture medium (2×10^5 cells/ml) for 20-24 hours to increase the expression of CCR3. (2) Calcium Mobilization Assay • Butyrate-pretreated cells were loaded with Fluo-3AM (Cat.#F-1242, Molecular Probes) in loading buffer (Hanks' solution Cat.#05906 Nissui, 20 mM HEPES pH 7.6, 0.1% BSA, 1 mM probenecid Cat.#P-8761 Sigma, 1 μM Fluo-3AM, 0.01% pluronic F-127 Cat.#P-6866 Molecular Probes) at a cell density of 1×10^7 cells/ml. Then, cells were washed with calcium assay buffer (Hanks' solution Cat.#05906 Nissui, 20 mM HEPES pH 7.6, 0.1% BSA, 1 mM Probenecid Cat.#P-8761 Sigma). The cell suspension (3.3×10^6 cells/ml) was added into 60 μl/well in the 96-well clear bottom black plate (Cat.#3904, Costar). […]

For `Cc1ccc(C)c(Oc2ccc([N+](=O)[O-])cc2S(=O)(=O)N2CCNCC2)c1C.Cl` [Example 1-61], the IC50 was 1000 to 10000 nM.
For the compound `CC(C)(C)c1cccc(Oc2ccc([N+](=O)[O-])cc2S(=O)(=O)N2CCNCC2)c1.Cl` [Example 1-36], the half-inhibitory concentration (IC50) lay in the range of 1000 to 10000 nM.
The same measure for `COc1ccccc1Oc1ccc([N+](=O)[O-])cc1S(=O)(=O)N1CCNCC1.Cl` [Example 1-27]: below 1000 nM.
In the case of `Cc1cc(C)cc(Oc2ccc(C(F)(F)F)cc2S(=O)(=O)N2CCNCC2)c1.Cl` [Example 1-43], the IC50 was below 1000 nM.
`Cc1cc(C)cc(Oc2ccc([N+](=O)[O-])cc2S(=O)(=O)N2CCN(C(=O)OC(C)(C)C)CC2)c1` [Example 1-1, tert-butyl 4-{[2-(3,5-dimethylphenoxy)-5-nitrophenyl]sulfonyl}-1-piperazinecarboxylate]: the concentration for half-maximal inhibition (IC50) is above 10000 nM.
For `Cc1cc(C)cc(Oc2ccc(S(C)(=O)=O)cc2S(=O)(=O)N2CCNCC2)c1.Cl` [Example 1-35], the half-maximal inhibitory concentration (IC50) was in the range of 1000 to 10000 nM.
`Cc1cc(C)cc(Oc2ccc(N)cc2S(=O)(=O)N2CCN(C(=O)OC(C)(C)C)CC2)c1` [Example 5-1, tert-butyl 4-{[5-amino-2-(3,5-dimethyl-phenoxy)phenyl]sulfonyl}-1-piperazinecarboxylate]: the IC50 is above 10000 nM.
Regarding `Cl.O=S(=O)(c1cc(Br)ccc1Oc1cc(Cl)cc(Cl)c1)N1CCNCC1` [Example 1-57], the IC50 is below 1000 nM.
As for `Cc1cc(C)cc(Oc2ccc(NC(=O)Cc3ccccc3)cc2S(=O)(=O)N2CCNCC2)c1` [Example 7-1, N-[4-(3,5-dimethylphenoxy)-3-(1-piperazinylsulfonyl)phenyl]-2-phenylacetamide], the IC50 is above 10000 nM.
Then `Cl.O=[N+]([O-])c1cccc(Oc2ccc([N+](=O)[O-])cc2S(=O)(=O)N2CCNCC2)c1` [Example 1-38], with 1000 to 10000 nM.
The same measure for `N#Cc1ccccc1Oc1ccc([N+](=O)[O-])cc1S(=O)(=O)N1CCNCC1` [Example 1-29]: 1000 to 10000 nM; for `O=C(O)C1CNCCN1S(=O)(=O)c1cc([N+](=O)[O-])ccc1Oc1cc(Cl)cc(Cl)c1` (stereo not shown) [Example 1-87]: below 1000 nM; for `CC(=O)c1cccc(Oc2ccc([N+](=O)[O-])cc2S(=O)(=O)N2CCNCC2)c1.Cl` [Example 1-31]: above 10000 nM.
Take `Cc1cccc(Oc2ccc([N+](=O)[O-])cc2S(=O)(=O)N2CCNCC2)c1C.Cl` [Example 1-62]: the IC50 is below 1000 nM.
On to `Cl.O=[N+]([O-])c1ccc(Oc2cc(C(F)(F)F)cc(C(F)(F)F)c2)c(S(=O)(=O)N2CCNCC2)c1` [Example 1-6], for which the IC50 was below 1000 nM.
The same measure for `Cl.O=[N+]([O-])c1ccc(Oc2cc(F)cc(F)c2)c(S(=O)(=O)N2CCNCC2)c1` [Example 1-4]: below 1000 nM; for `CC1CN(S(=O)(=O)c2cc([N+](=O)[O-])ccc2Oc2cc(Cl)cc(Cl)c2)CC(C)N1` (stereo not shown) [Example 1-93]: below 1000 nM; for `Cc1cc(C)cc(Oc2ccc(C(=O)N3CCNCC3)cc2S(=O)(=O)N2CCNCC2)c1.Cl.Cl` [Example 1-42]: above 10000 nM.
Then `Cc1cc(C)cc(Oc2ccccc2S(=O)(=O)N2CCNCC2)c1.Cl` [Example 1-41], with above 10000 nM.
`Cc1cc(C)cc(Oc2ccc([N+](=O)[O-])cc2S(=O)(=O)N2CC(C)NCC2C)c1.Cl` (stereo not shown) [Example 1-54]: the IC50 is below 1000 nM.
Then `Cc1cc(C)cc(Oc2cc(C(F)(F)F)ccc2S(=O)(=O)N2CCNCC2)c1.Cl` [Example 1-46], with above 10000 nM; and `Cc1cc(C)cc(Oc2cc3cc[nH]c3cc2S(=O)(=O)N2CCNCC2)c1` [Example 11-1, 5-(3,5-dimethylphenoxy)-6-(1-piperazinylsulfonyl)-1H-indole trifluoroacetate], with above 10000 nM; and `N#Cc1ccc(Nc2cc(Cl)cc(Cl)c2)c(S(=O)(=O)N2CCNCC2)c1` [Example 20-1, 4-[(3,5-dichlorophenyl)amino]-3-(1-piperazinylsulfonyl)benzonitrile hydrochloride], with below 1000 nM.
As to `CN(C)C(=O)c1ccc(Oc2cc(Cl)cc(Cl)c2)c(S(=O)(=O)N2CCNCC2)c1` [Example 10-1, 4-(3,5-dichlorophenoxy)-N,N-dimethyl-3-(1-piperazinylsulfonyl)benzamide hydrochloride], the IC50 lay in the range of 1000 to 10000 nM.
Consider `Cl.Cl.Cl.Nc1ccc(Oc2ccc([N+](=O)[O-])cc2S(=O)(=O)N2CCNCC2)cc1` [Example 1-13], for which the IC50 is above 10000 nM.
On to `CN(CCN1CCCCC1)S(=O)(=O)c1cc([N+](=O)[O-])ccc1Sc1cc(Cl)cc(Cl)c1` [Example 26-1, 2-[(3,5-dichlorophenyl)sulfanyl]-N-methyl-5-nitro-N-[2-(1-piperidinyl)ethyl]benzenesulfonamide], for which the IC50 was below 1000 nM.
As for `Cc1ccc(Cl)c(Oc2ccc([N+](=O)[O-])cc2S(=O)(=O)N2CCNCC2)c1` [Example 1-80], the IC50 is below 1000 nM.
Turning to `Cl.O=[N+]([O-])c1ccc(Oc2cc(Cl)cc(Cl)c2)c(S(=O)(=O)N2CCCNCC2)c1` [Example 1-91], the half-inhibitory concentration (IC50) was below 1000 nM.
As to `Cc1ccc(C(C)C)c(Oc2ccc([N+](=O)[O-])cc2S(=O)(=O)N2CCNCC2)c1.Cl` [Example 1-66], the IC50 is 1000 to 10000 nM.
`Cc1cc(C)cc(Oc2ccc([N+](=O)[O-])cc2S(=O)(=O)N2CCN(CCO)CC2)c1` [Example 1-88]: the IC50 is below 1000 nM.
Regarding `COc1cc(Oc2cc(C)cc(C)c2)c(S(=O)(=O)N2CCNCC2)cc1[N+](=O)[O-].Cl` [Example 1-47], the IC50 was 1000 to 10000 nM.
In the case of `Cl.O=[N+]([O-])c1ccc(Oc2cccc(C(F)(F)F)c2)c(S(=O)(=O)N2CCNCC2)c1` [Example 1-34], the IC50 is below 1000 nM.
The same measure for `Cl.O=S(=O)(c1cc(Cl)ccc1Oc1cc(Cl)cc(Cl)c1)N1CCNCC1` [Example 1-56]: below 1000 nM; for `Cc1ccc(C)c(Oc2ccc([N+](=O)[O-])cc2S(=O)(=O)N2CCNCC2)c1.Cl` [Example 1-64]: below 1000 nM; for `Cc1cc(C)cc(Oc2ccncc2S(=O)(=O)N2CCNCC2)c1` [Example 25-1, 1-{[4-(3,5-dimethylphenoxy)-3-pyridinyl]sulfonyl}piperazine hydrochloride]: 1000 to 10000 nM.
Then `Cc1cc(Oc2ccc([N+](=O)[O-])cc2S(=O)(=O)N2CCNCC2)cc(C)c1Cl` [Example 1-79], with below 1000 nM; and `Cc1cc(C)cc(Oc2ccc([N+](=O)[O-])cc2S(=O)(=O)N2CCCNCC2)c1` [Example 1-90], with below 1000 nM.
